Patent US7759101B2, “Ginsenoside glycosidases hydrolyzing ginsenoside sugar moieties and uses thereof” (priority 2000, dated 2010)

Experiments:
[1] = test system: ginsenoside glycosidase I; assay: Hydrolysis of ginsenosides with Fraction 36 (ginsenoside glycosidase I); type: biochemical, Aspergillus niger; settings: pH 5.0, 30° C.
Method: (§1) 10 ml of the enzyme solution obtained in 1.1 was subjected to a DEAE-Cellulose DE-52 column (Pharamcia, 1.5×6.7 cm) to absorb the enzyme protein. The column was then eluted with a NaCl gradient (0.06, 0.12, 0.18, 0.24, 0.3, 0.4, 0.5 and 0.6M).
Fractions 36 and 54 from the DEAE-Cellulose column appeared as one dot on a SDS-polyacrylamide gel, representing the purified enzymes.
Fraction 36 which was eluted with 0.12 M NaCl from the DEAE-Cellulose column was lyophilized and appeared as a single dot with a molecular weight of 51,000 Daltons when running on a SDS-polyacrylamide gel.
(§2) To observe the differences between the ginsenoside glycosidases of the invention and known exo-cellulases, the ginsenoside glycosidases of the invention were compared with cellulose β-glucosidase (E.C. 3.2.1.21) in two reactions with 0.5% ginsenosides Rb1 or Rd as substrate.

[2] = test system: Almond cellulose β-glucosidase(EC 3.2.1.21); assay: Comparison: hydrolysis of ginsenosides with almond cellulose β-glucosidase; type: biochemical; settings: substrate 0.5%, pH 5.0, 30° C., 18 hours
Description: as §2

[3] = test system: ginsenoside glycosidase II; assay: Hydrolysis of ginsenosides with ginsenoside glycosidase II (Fraction 54); type: biochemical, Aspergillus niger; settings: substrate 0.5%, pH 5.0, 30° C., 18 hours
Method: as §1
Fraction 54 which was eluted with 0.18 M NaCl from the DEAE-Cellulose column was lyophilized and appeared as a single dot when running on a SDS-polyacrylamide gel with a molecular weight of 90,000 Daltons. Therefore, it represented a purified enzyme and designated as ginsenoside glycosidase II.
as §2

[4] = test system: ginsenoside glycosidase I from ginseng plants; assay: Hydrolysis of ginsenosides with fraction 52 (ginsenoside glycosidase I) from ginseng plant; type: biochemical; settings: Fraction 52; substrate 0.5%; 50° C., pH 5.0, 18 hours
Method: 200 g of fresh ginseng root was cut into pieces and added to 600 ml of 0.02 M acetate buffer pH 5. Supernatant was obtained by filtration after the mixture stand at 40° C. for 2 hours. To the supernatant (NH4)2SO4 was added gradually until 70% saturation and the mixture stand overnight at 4° C. Then protein pellets were collected by centrifugation and redissolved in 15 ml of distilled water. The solution was dialyzed against 0.02 M Tris-HCl pH 7.4. Insolubles were removed by centrifugation and the volume of the supernatant was adjusted to 20 ml.
5 ml of the enzyme solution was subjected to a DEAE-Cellulose DE-25 column (Whatman, 1.4×6.7 cm). The column was eluted with a KCl gradient (0.06, 0.12, 0.18 and 0.24 M) in 0.02 M Tris-HCl pH 7.4. After elution, each fraction was tested for the activity of hydrolyzing ginsenosides. […] Fraction 52 can also hydrolyze the glucosidic bond at the twentieth carbon atom of Rb and Rc to give ginsenoside F2.

[5] = test system: ginsenoside glycosidases from A. oryzae; assay: Hydrolysis of ginsenosides with crude ginsenoside glycosidases from A. oryzae, TLC; type: biochemical, Aspergillus oryzae; settings: pH 5.0, 30° C., 18 hours
Method: Aspergillus oryzae FFCCDL-39 g (available from Food Fermentation Culture Collection of Dalian Institute of Light Industry) was cultured with stirring in a medium containing 1% ginseng extracts and 3% wheat bran extracts at 30° C. for 64 hours. Cells were removed by centrifugation, after which (NH4)2SO4 powder was added to 2000 ml of the cell-free supernatant with stirring to 65% saturation. The solution was stored overnight at 4° C. and precipitated proteins were collected by centrifugation, resuspended in 80 ml of distilled water and dialyzed against 0.01M acetate buffer pH 5. Insolubles were removed by centrifugation, and the solution was adjusted to 200 ml with 0.01 M acetate buffer pH 5. The crude enzyme solution may be used to hydrolyze ginsenosides or to purify the enzymes.
Each 100 mg of ginsenosides Rb1, Rb2, Rc Re and Rd and each 10 mg of ginsenoside Rg3 and Rg2 were dissolved in separate tubes containing 10 ml of 0.01M acetate buffer pH 5. 10 ml of the crude enzyme solution obtained as above was added to each tube and allowed to react at 30° C. for 18 hours. Then 10 ml of n-butanol was added to stop the reactions. The products were measured by thin layer chromatography (TLC) (Silica gel 60-F254, Merck; chloroform:methanol:water 70:30:5). […]

[6] = test system: Ginsenoside Glycosidases from Yeast; assay: Hydrolysis of Rd with ginsenoside glycosidases from yeast; type: biochemical, Candida sp. FFCCDL-2 g; settings: 0.5% Rd in acetate buffer, 60° C., 12 hours
Method: Candida sp. FFCCDL-2 g (available from Food Fermentation Culture Collection of Dalian Institute of Light Industry) was cultured with shaking at 30° C. for 56 hours in a medium containing 2% by weight of ginseng extracts and 8% by weight of malt extracts. Cells were removed by centrifugation, after which (NH4)2SO4 powder was added to 500 ml of the cell-free supernatant to 65% saturation. The solution was dialyzed against 0.01M acetate buffer pH 5. Insolubles were removed by centrifugation, and 25 ml of crude enzyme solution was obtained.
10 ml of the enzyme solution was allowed to react with 10 ml of 0.5% Rd in acetate buffer at 60° C. for 12 hours. […] The enzymes can also hydrolyze β-(1→2)-glucoside of Rg3 to give Rh2.

[7] = test system: bacterial ginsenoside glycosidases; assay: Hydrolysis of Rd with ginsenoside glycosidases from bacteria; type: biochemical, Bacillus sp. JF; settings: 0.5% Rd in acetate buffer containing 20% ethanol, 70° C., 16 hours
Method: Thermophilic and aerobic Bacillus sp. JF (Fengxie Jin et al., J. Gen. Appl. Microbiol., 36, 415-434, 1990) was cultured with aeration and stirring in a medium containing 0.5% by weight of ginseng extracts, 1% by weight of wheat bran extracts and 0.3% tryptone with a pH of 7.2 at 60° C. for 36 hours. Cells were removed by centrifugation and 3000 ml of 95% ethanol was added to 1000 ml of the cell-free supernatant. The solution was allowed to stand at 4° C. overnight and then centrifuged to collect the pellets. The enzyme protein pellets were dissolved in 50 ml of 0.01M acetate buffer pH 5. Insoluble materials were removed by centrifugation and a crude enzyme solution was obtained.
10 ml of the enzyme solution was allowed to react with 10 ml of 0.5% Rd in acetate buffer containing 20% ethanol at 70° C. for 16 hours. […] The enzymes can also hydrolyze β-(1→2)-glucoside of Rg3 to give Rh2.

[8] = Fraction 36, substrates Rb1, Rb2, Rc, Rd 0.5%, Rg3, F2, Rh2, C—K, Rg2 0.05%
[9] = Table 8, ginsenoside glycosidase I, substrate 0.5%, 18 hours

Structure (SMILES) | Percentage of C—K in the reaction product [1, 8] | Percentage of F2 in the reaction product [1, 8] | Percentage of aglycone in the reaction product [1, 8] | Percentage of C—K in the reaction product [1, 9] | Percentage of F2 in the reaction product [1, 9] | Percentage of aglycone in the reaction product [1, 9] | Percentage of Rb1 in the reaction product [2] | Percentage of Rd in the reaction product [3] | Percentage of Rg3 in the reaction product [3] | Percentage of F2 in the reaction product [4] | Percentage of Rd in the reaction product [4] | Percentage of C—K in the reaction product [5] | Percentage of F2 in the reaction product [5] | Percentage of Rd in the reaction product [5] | Percentage of aglycone in the reaction product [5] | other results
CC(C)=CCC[C@](C)(O[C@@H]1O[C@H](CO[C@@H]2O[C@H](CO)[C@@H](O)[C@H](O)[C@H]2O)[C@@H](O)[C@H](O)[C@H]1O)[C@H]1CC[C@]2(C)[C@@H]1[C@H](O)C[C@@H]1[C@@]3(C)CC[C@H](O[C@@H]4O[C@H](CO)[C@@H](O)[C@H](O)[C@H]4O[C@@H]4O[C@H](CO)[C@@H](O)[C@H](O)[C@H]4O)C(C)(C)[C@@H]3CC[C@]12C [Rb1, ginsenoside Rb1] | 49% | 38% | 2% | 49% | 38% | 2% | 80% | 90% | 5% | 70% | 30% | 45% | 38% | 20% | 2% | Percentage of Rd in the reaction product [1, 8]: 8%; Percentage of Rh2 in the reaction product [1, 8]: 1%; Percentage of Rd in the reaction product [1, 9]: 8%; Percentage of Rh2 in the reaction product [1, 9]: 1%; Percentage of Rd in the reaction product [2]: 20%
CC(C)=CCC[C@](C)(O[C@@H]1O[C@H](CO)[C@@H](O)[C@H](O)[C@H]1O)[C@H]1CC[C@]2(C)[C@@H]1[C@H](O)C[C@@H]1[C@@]3(C)CC[C@H](O[C@@H]4O[C@H](CO)[C@@H](O)[C@H](O)[C@H]4O[C@@H]4O[C@H](CO)[C@@H](O)[C@H](O)[C@H]4O)C(C)(C)[C@@H]3CC[C@]12C [Rd, ginsenoside Rd] | 25% | 50% | 5% | 25% | 50% | 5% | 100% | 90% | 5% | 40% | 60% | 29% | 40% | 25% | 5% | Rd converted to ginsenoside F2 [6]: 73%; Rd converted to ginsenoside F2 [7]: 60%; Percentage of Rg3 in the reaction product [5]: 1%
